Measurements published in ChEMBL document CHEMBL2073791, “Substituted pyridazino[3,4-b][1,5]benzoxazepin-5(6H)ones as multidrug-resistance modulating agents” (J Med Chem, 2004).

These molecules were tested against ATP-dependent translocase ABCB1 (Homo sapiens, UniProt P08183) (assay: TP_TRANSPORTER: drug resistance (vincristine) in HeLa-MDR1 cells).
Assay type: functional, cell-based

ATP-dependent translocase ABCB1, sequence (P08183 whole entry): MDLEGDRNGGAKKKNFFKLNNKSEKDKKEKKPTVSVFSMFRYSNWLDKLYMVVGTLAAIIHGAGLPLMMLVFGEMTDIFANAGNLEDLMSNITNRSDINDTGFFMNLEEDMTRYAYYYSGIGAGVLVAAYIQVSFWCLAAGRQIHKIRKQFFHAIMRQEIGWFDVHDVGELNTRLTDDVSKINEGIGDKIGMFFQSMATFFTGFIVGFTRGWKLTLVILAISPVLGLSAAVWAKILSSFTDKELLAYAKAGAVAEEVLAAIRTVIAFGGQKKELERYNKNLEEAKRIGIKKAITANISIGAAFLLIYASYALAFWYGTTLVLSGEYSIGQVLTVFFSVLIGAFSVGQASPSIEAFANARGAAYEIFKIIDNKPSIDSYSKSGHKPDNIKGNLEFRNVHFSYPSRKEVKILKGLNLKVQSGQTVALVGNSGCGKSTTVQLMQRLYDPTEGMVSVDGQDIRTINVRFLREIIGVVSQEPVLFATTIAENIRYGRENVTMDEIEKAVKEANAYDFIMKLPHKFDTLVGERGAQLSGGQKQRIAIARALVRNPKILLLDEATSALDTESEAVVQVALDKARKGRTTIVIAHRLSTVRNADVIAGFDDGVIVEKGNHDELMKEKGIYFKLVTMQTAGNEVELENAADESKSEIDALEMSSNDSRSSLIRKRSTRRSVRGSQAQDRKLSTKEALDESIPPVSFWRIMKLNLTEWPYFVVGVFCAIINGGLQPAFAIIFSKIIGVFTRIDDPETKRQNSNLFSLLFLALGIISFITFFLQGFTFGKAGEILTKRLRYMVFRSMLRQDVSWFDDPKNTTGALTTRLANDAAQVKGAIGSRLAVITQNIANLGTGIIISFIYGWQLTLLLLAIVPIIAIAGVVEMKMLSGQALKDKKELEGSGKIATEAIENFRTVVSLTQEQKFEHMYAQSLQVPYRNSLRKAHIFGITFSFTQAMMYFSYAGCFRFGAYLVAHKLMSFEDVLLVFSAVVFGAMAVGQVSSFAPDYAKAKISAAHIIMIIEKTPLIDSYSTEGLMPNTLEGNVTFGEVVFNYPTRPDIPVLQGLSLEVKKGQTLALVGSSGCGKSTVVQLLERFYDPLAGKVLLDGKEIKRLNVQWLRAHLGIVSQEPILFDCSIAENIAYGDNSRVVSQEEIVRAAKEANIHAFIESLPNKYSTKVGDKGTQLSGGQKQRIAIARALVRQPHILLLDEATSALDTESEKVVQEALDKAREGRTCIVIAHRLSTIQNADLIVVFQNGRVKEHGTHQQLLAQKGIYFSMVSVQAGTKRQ

Row | Structure (SMILES) | Activity
1 | O=C1c2cc(Cl)nnc2Oc2ccc(C(F)(F)F)cc2N1CCCN1CCN(c2ccccc2)CC1 | substrate [+]
2 | Cc1cc(C)c2c(c1)N(CCCN1CCN(c3ccccc3)CC1)C(=O)c1cc(Cl)nnc1O2 | substrate [+]
3 | O=C1c2cc(Cl)nnc2Oc2ccc(C(F)(F)F)cc2N1CCCN1CCN(Cc2ccccc2)CC1 | substrate [+]
4 | O=C1c2cc(Cl)nnc2Oc2cc(C(F)(F)F)ccc2N1CCCN1CCN(C(c2ccccc2)c2ccccc2)CC1 | substrate [+]
